# Reference: patent US12636373B2, “Prodrugs with a tridentate self-immolative linker” (The General Hospital Corporation, priority 2018, dated 2026)
# Where a SMILES comes first, the peptide text is derived from it. [ ]: non-standard residue; d: D form. The star is where a group is joined. Dolaproine = CO[C@@H]([C@@H]1CCCN1)[C@@H](C)C(=O)O; Dil = CC[C@H](C)[C@H](NC)[C@@H](CC(=O)O)OC; X2 = C[C@@H](N*)[C@@H](O)c1ccccc1; NMeV = CN[C@H](C(=O)O)C(C)C
# Assays:
# [1] = Nano-encapsulation (loading) efficiency, PLGA-PEG nanoprecipitation; assay type: physicochemical; conditions: PLGA-PEG polymeric micellar formulation
# Experimental: Initial experiments determined up to 1 mg of C16 prodrug could be used with the same polymer composition with no detectable loss in loading efficiency. For fluorescence-based imaging and flow-cytometric detection of NP uptake, PLGA-BODIPY630 was used instead of PLGA (described previously).^5 NP drug and Pd compound loadings were determined by absorbance (Nanodrop spectrophotometer), interpolation from a standard curve (R^2>0.99) after 1:10 dilution in DMF. Size and zeta potential measurements were performed using dynamic light scattering (Malvern Zetasizer). Prodrug loading efficiency is defined as the fraction of initial drug used in the nano-precipitation reaction that was successfully encapsulated and recovered in final NP product.
# [2] = test system: HT1080-EB3-mApple cells; assay: EB3 microtubule comet imaging in live cells; assay type: cell-based, human; conditions: individual treatment, 24 h; 1 μM MMAE or C16proMMAE, 35 μM Pd-NP
# Experimental: Microtubule imaging. EB3 tracking was performed using an FV1000 confocal laser scanning microscope on a 37° C. heated stage, with XLUMPLFLN 20× (NA 1.0) or LUMFLN 60× (NA 1.1) water-immersion objectives, 1-10× digital zoom, 559-nm diode laser, and BA575-620 emission filter (all Olympus America). […] EB3 tracks were automatically identified and analyzed from time-lapse datasets using u-track software,^35 with tuning of maximum gap number and minimum frame number across datasets to account for differences in image quality; ambiguous and spurious tracks and artifacts were excluded according to requirements for directional continuity (directional persistence as net displacement/path length>0.8) and movement (value>3 pixels). Speed was determined between frames in each track and averaged for each track by computing the mean of the middle 80% of between-frame values. Track overlay figures were produced using a custom python script. Averaged track speeds excluded outliers falling more than 1.5× the interquartile range for each biological replicate.
# [3] = cited from earlier work
smiles,measurement,setting,value
"CC[C@H](C)[C@@H]([C@@H](CC(=O)N1CCC[C@H]1[C@H](OC)[C@@H](C)C(=O)N[C@H](C)[C@@H](O)c1ccccc1)OC)N(C)C(=O)[C@@H](NC(=O)[C@@H](NC)C(C)C)C(C)C [MMAE, monomethyl auristatin E] (H-[NMeV]V[Dil][Dolaproine]-X2)",nano-encapsulation efficiency,[1],undetectable
same,microtubule comets (prevalence and growth speed),[2],complete elimination of visible comets
same,toxicity at equivalent doses,[3],severely toxic and above the maximum tolerated dose
